“And” between values parts separate entries of the source, which are not always exact repeats. Equal values may be shown once.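 Growth conditions: 96-well plates. Treatment: test compound, 48 hours, 5 concentrations. Analysis: linear interpolation between bracketing concentrations; unreached endpoints set to highest concentration. GI50: concentration for 50% inhibition of growth. At the TGI there is no net growth.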
Tests used:
Assay in all cases: NCI tumour cell line growth inhibition, 48 h
[1] = system: LOX IMVI melanoma
[2] = system: HCC-2998 colon
[3] = system: SF-268 CNS
[4] = system: SK-MEL-2 melanoma
[5] = system: NCI-H522 lung
[6] = system: NCI-H226 lung
[7] = system: MDA-MB-435
[8] = system: IGROV1 ovarian
[9] = system: NCI-H460 lung
[10] = system: OVCAR-8 ovarian
[11] = system: NCI/ADR-RES ovarian
[12] = system: OVCAR-3 ovarian
[13] = system: CCRF-CEM leukemia

SMILES	TGI [1]	TGI [2]	TGI [3]	TGI [4]	TGI [5]	TGI [6]	TGI [7]	TGI [8] [µM]	TGI [9] [µM]	TGI [10] [µM]	TGI [11] [µM]	TGI [12]	TGI [13]	GI50 [4]
C=C(C(=O)OC)[C@@H]1C[C@@H](OC(C)=O)C2=C[C@H](C[C@@]3(C)O[C@@H]3C3=CC(C)=C(O3)[C@H]1OC(C)=O)OC2=O	41.8 µM	43 µM	> 100 µM	> 100 µM	5.83 µM	> 100 µM	37.9 µM	57.1	64.5	> 100	> 100			
COc1ccccc1/C=C/C1=NN(c2cccc(S(=O)(=O)O)c2)C2(C1)C(Cl)C(=O)N2c1nc2ccccc2s1 (configuration not stated)	> 67 µM	> 100 µM	> 100 µM	> 100 µM	> 58.8 µM	> 100 µM	> 100 µM	> 100	> 100	> 100	> 100	> 100 µM	33.1 µM	
COc1ccc(COC(=O)NCC(=O)NC(C)C(=O)NC(Cc2ccccc2)C(=O)OCc2ccccc2)cc1 (configuration not stated)	79.1 µM and 38.8 µM	64.3 µM and 37.4 µM	> 100 µM and 55.2 µM	83.3 µM and > 100 µM	29.3 µM and 31.1 µM	55.9 µM and 85.6 µM	47.3 µM and 71.7 µM	> 100	22.7	> 100	> 100	64.2 µM and 50.7 µM	> 100 µM and 43.9 µM	35.5 µM and > 100 µM
CC(C)(Cl)C(Br)CCC(Br)(CCl)C(Cl)CBr (configuration not stated)	> 10 µM	> 10 µM		> 10 µM	> 10 µM	> 10 µM	> 10 µM	> 10	> 10	> 10	> 10	> 10 µM	> 10 µM	
Cc1ccc2nc(C(C)C)c(=O)[nH]c2c1		> 100 µM	> 100 µM	28.2 µM	> 100 µM	> 100 µM	> 100 µM	> 100	> 100	> 100	> 100	32.8 µM	> 100 µM	
O=[N+]([O-])c1ccc(-n2nc3ccc4c(no[n+]4[O-])c3n2)cc1	> 100 µM	> 100 µM	> 100 µM	> 100 µM	> 100 µM	> 100 µM	> 100 µM	> 100	> 100	> 100	> 100	> 100 µM	> 100 µM	
CCN(CC)CCN(C)c1ccc(CO)c2c1C(=O)c1ccccc1S2=O (configuration not stated)	3.66 µM	2.99 µM	35.9 µM	40.1 µM	4.23 µM	33.6 µM	3.65 µM	32.8	27.8	3.5	3.48	4.11 µM	9.96 µM	
CN(C)c1c(C2OC(CO)C(O)C2O)c(=O)c1=O (configuration not stated)	> 100 µM	> 100 µM	> 100 µM	> 100 µM	> 100 µM	> 100 µM	> 100 µM	> 100	> 100	> 100	> 100	> 100 µM	> 100 µM	
Nc1nc(NCCCO)cc(=O)[nH]1	> 100 µM	> 100 µM	> 100 µM	> 100 µM	> 100 µM	> 100 µM	> 100 µM	> 100	> 100	> 100	> 100	> 100 µM	> 100 µM	
O=C1/C(=C/c2ccccc2[N+](=O)[O-])N=C(c2ccccc2)N1c1nc2ccccc2s1	56.8 µM	43.1 µM	60.4 µM	> 100 µM	40.1 µM	> 100 µM	54.1 µM	33.7	> 100	39.7	39.5	51.9 µM	0.681 µM	
CC(C)C(OC(=O)c1ccc(NCC2=CC(=O)C=CC2=O)cc1)C(C)C	18 µM	27.9 µM	31.9 µM	27.3 µM	2.85 µM	11.7 µM	17.9 µM	5.14	32.6	12.9	19.8	23.4 µM	2.36 µM	
CCC(C)[C@@H](Nc1c(O)c2c(c(O)c1Cl)C(=O)C=CC2=O)C(=O)OC (some centres not stated)	> 10 µM	> 10 µM	> 10 µM	> 10 µM	4.92 µM	> 10 µM	> 10 µM	> 10	> 10	> 10	> 10	9.1 µM	4.98 µM	
CN(C)N1C(=O)S/C(=C\c2ccc([N+](=O)[O-])cc2)C1=O	> 100 µM	> 100 µM	> 100 µM	> 100 µM	> 100 µM	> 100 µM	> 100 µM	> 100	> 100	> 100	> 100	> 100 µM	> 100 µM	
CC1=CC[C@@]2(C)CC[C@](O)(C(C)C)C2C(OC(=O)c2ccccc2)C1 (some centres not stated)	42 µM	25 µM	51.7 µM	32.2 µM	33.2 µM	45.3 µM	93.2 µM	30.6	40.6	37.5	41.5	31.8 µM	54.7 µM	
O=C1O[C@H]2[C@H](OC(=O)c3cc(O)c(O)c(O)c3)[C@@H](OC(=O)c3cc(O)c(O)c4c3[C@@H]3C1=CC(=O)C(O)(O)C3(O)O4)[C@H](OC(=O)c1cc(O)c(O)c(O)c1)O[C@@H]2COC(=O)c1cc(O)c(O)c(O)c1 (some centres not stated)	> 100 µM	> 100 µM	> 100 µM	> 100 µM	> 100 µM	> 100 µM	> 100 µM	> 100	> 100	> 100	> 100	> 100 µM	> 100 µM	
O=C(CSCC(=O)N/N=C\c1cccc([N+](=O)[O-])c1)N/N=C\c1cccc([N+](=O)[O-])c1	> 100 µM	> 100 µM	> 100 µM	> 100 µM	> 100 µM	> 100 µM	> 100 µM	68.7	> 100	> 100	60	84.1 µM	> 100 µM	
CCCSc1ccc2[nH]c(N3C(=O)/C(=C/c4ccc(SC)cc4)N=C3c3ccccc3)cc2c1	> 50 µM	> 50 µM	> 50 µM	> 38.5 µM	> 50 µM	> 50 µM	21.2 µM	> 50	> 50	> 50	> 50	> 50 µM	> 45.8 µM	

SMILES	TGI [1]	TGI [2]	TGI [3]	TGI [4]	TGI [5]	TGI [6]	TGI [7]	TGI [8] [µM]	TGI [9] [µM]	TGI [10] [µM]	TGI [11] [µM]	TGI [12]	TGI [13]	GI50 [4]
O=C(NNC(=S)NC1CCCCC1)C12CC3CC(CC(C3)C1)C2	> 100 µM	> 100 µM	> 100 µM	> 100 µM	> 100 µM	> 100 µM	> 100 µM	> 100	> 100	> 100	> 100	> 100 µM	> 100 µM	
CCOC(=O)c1nc2cc(C(F)(F)F)ccc2nc1Nc1ccc(C(=O)OC)s1	> 100 µM	> 100 µM	> 100 µM	43.5 µM	90.3 µM	87.3 µM	> 100 µM	> 100	> 100	> 100	> 100	48.7 µM	> 100 µM	
O=C1CCc2ccc(O)c(c2)Oc2ccc(cc2)C(Sc2ccccc2)CCO1 (configuration not stated)	25.8 µM	32.9 µM	42.4 µM	37.3 µM	27.7 µM	30.2 µM	41.9 µM	27.6		37.3	31.4	29.6 µM	> 100 µM	
Cc1c(N=C/C=C/c2ccccc2)c(=O)n(-c2ccccc2)n1C	25 µM		> 100 µM	> 100 µM	> 100 µM	38 µM	> 100 µM	> 100	> 100	54.4	79.6	67.9 µM	30.1 µM	
COc1ccc2c(c1)/C(=C\c1c(Cl)[nH]c3ccccc13)C(=O)N2	17.5 µM	13.3 µM	16 µM	16.1 µM	11.5 µM	70.8 µM	3.82 µM	9.78	14.5	23.8	8.03	23 µM	13.4 µM	
CC(=O)OCC1OC(n2c3c(c(-c4ccc(Cl)cc4)c(C#N)c2=S)CCCC3)C(OC(C)=O)C(OC(C)=O)C1OC(C)=O (configuration not stated)	> 100 µM	> 100 µM	> 100 µM	63.3 µM	> 100 µM	> 100 µM	> 100 µM	> 100	> 100	> 100	> 100	> 100 µM	> 100 µM	
COC(=O)c1cc(NC(=O)Cc2c[nH]c3ccccc23)cn1C	> 100 µM	> 100 µM	> 100 µM	> 100 µM	> 100 µM	> 100 µM	> 100 µM	> 100	> 100	> 100	> 100	> 100 µM	> 100 µM	
COc1ccc2c(c1)CCCN1CCc3ccccc3C21 (configuration not stated)	> 100 µM	> 100 µM	> 100 µM	> 100 µM	> 100 µM	80 µM	43.2 µM	> 100	> 100	> 100	49.5	> 100 µM	> 100 µM	
CSc1nc2c(c(=O)n1C)N=C(c1ccc([N+](=O)[O-])cc1)CC(c1ccccc1)N2 (configuration not stated)	> 100 µM	> 100 µM		> 100 µM	> 100 µM	> 100 µM	> 100 µM	> 100	> 100	> 100	> 100	> 100 µM	> 100 µM	
CCCCCc1c(CCCC)c(=O)[nH]c2nc(NC(=O)CCCC)ccc12	> 100 µM	> 100 µM	> 100 µM	> 100 µM	> 100 µM	> 100 µM	> 100 µM	> 100	> 100	> 100	> 100	> 100 µM	> 100 µM	
O=C1CC(CC(=O)c2ccc(Br)cc2)C(=O)/C1=C(/O)c1ccc(Br)cc1 (configuration not stated)	> 100 µM	> 100 µM	> 100 µM	> 100 µM	> 100 µM	> 100 µM	> 100 µM	> 100	> 100	> 100	> 100	> 100 µM	> 100 µM	
NC1CCC(N(CC(=O)O)CC(=O)O)C(N(CC(=O)O)CC(=O)O)C1 (configuration not stated)	> 100 µM	> 100 µM	> 100 µM	> 100 µM	> 100 µM	> 100 µM	> 100 µM	> 100	> 100	> 100	> 100	> 100 µM	> 100 µM	
CC(Nc1ccc(Cl)c(Cl)c1)c1ccncc1 (configuration not stated)	40 µM		> 100 µM	55.6 µM	37 µM	81.6 µM	> 100 µM	50.7	44	76.2	> 100	84.3 µM	> 100 µM	
O=C(/C=C/c1ccccc1)Nc1ccccc1SCCCCl	> 68.2 µM	73.9 µM	> 100 µM	> 100 µM	24.3 µM	> 100 µM	37 µM	> 51.5	> 82.2	> 69.8	35.1	> 92.1 µM	> 100 µM	
O=[S@]1c2ccc3ccccc3c2N[C@@H]2[C@H]1[C@H]1C=C[C@@H]2C1	> 100 µM		> 100 µM	> 100 µM	55.4 µM	> 100 µM	99.6 µM	> 100	> 100	> 100	99.7	37.6 µM	68.4 µM	
C=CC1CN(C(=O)OCC)N(C(=O)OCC)C1CCc1ccccc1 (configuration not stated)	> 100 µM	> 100 µM	> 100 µM	> 100 µM	> 100 µM	> 100 µM	> 100 µM	> 100	> 100	> 100	> 100		> 100 µM	
[B-][P+](CC[P+]1([B-])[C@@H](C)[C@@H](O)[C@H](O)[C@@H]1C)(c1ccccc1)c1ccccc1OC (some centres not stated)	8.51 µM		32.8 µM	30.2 µM	26.2 µM	31.8 µM	30.4 µM	31.3	32	31.5	35.9	31 µM	46.4 µM	

Source: PubChem BioAssay (NCI)
